Test systems include HCC-2998 colon; NCI/ADR-RES ovarian; NCI-H460 lung; MCF7 breast; CAKI-1 renal; CCRF-CEM leukemia; SK-OV-3 ovarian; EKVX NSCLC; K-562 leukemia; T-47D breast; UACC-62 melanoma.
Holding throughout (assay): growth of human tumour cells (NCI), 48 h

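Following 48 hours of exposure in 96-well plates, responses at five concentrations were used to interpolate endpoints linearly. The concentration for full growth arrest is given as TGI.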

For `Cc1cc(N(CCC#N)CCC#N)ccc1/C(N=Nc1cccc([N+](=O)[O-])c1)=N/NC(=O)c1cc(Cl)ccc1O`, the TGI with HCC-2998 colon was 93.4 µM; in the assay on NCI/ADR-RES ovarian, > 100 µM; in the assay with NCI-H460 lung, 88.6 µM; in the assay on MCF7 breast, > 100 µM; with CAKI-1 renal it was 56.7 µM; in the assay with CCRF-CEM leukemia, 26.7 µM. The TGI in the assay with SK-OV-3 ovarian was > 100 µM; in the assay on EKVX NSCLC it was 93.6 µM; in the assay with K-562 leukemia, > 100 µM; with T-47D breast it was 71 µM; in the assay with UACC-62 melanoma it was 40.2 µM.

Take `COc1ccc(C2SCC(=O)N2c2ccc(-c3ccc(-n4c(-c5ccccc5)nc5ccccc5c4=O)cc3)cc2)cc1` (stereo not drawn): the TGI in the assay with HCC-2998 colon, in the assay with NCI/ADR-RES ovarian, with NCI-H460 lung, in the assay with MCF7 breast, in the assay on CAKI-1 renal and in the assay on CCRF-CEM leukemia was > 100 µM throughout. Also, the TGI with SK-OV-3 ovarian, with EKVX NSCLC, in the assay on K-562 leukemia, in the assay with T-47D breast and in the assay with UACC-62 melanoma was > 100 µM throughout.

For the molecule `O=C(Cn1nc(Br)c(Br)c1Br)c1ccccc1`, the TGI in the assay with HCC-2998 colon was > 100 µM; with NCI/ADR-RES ovarian, 93.1 µM; in the assay on NCI-H460 lung, 63.9 µM; with MCF7 breast it was 83.6 µM; in the assay with CAKI-1 renal it was 96.7 µM; in the assay with CCRF-CEM leukemia, 23 µM. In addition, the TGI with SK-OV-3 ovarian was 95.2 µM; in the assay on EKVX NSCLC it was > 100 µM; in the assay with K-562 leukemia it was 28.7 µM; in the assay on T-47D breast it was 89.1 µM; in the assay on UACC-62 melanoma it was 56.9 µM.

As to `CC(C)C(C/C=C1/CC(CO)(COC(=O)CC(C(C)C)C(C)C)OC1=O)C(C)C` (stereo not drawn), the TGI in the assay with HCC-2998 colon amounted to 13.3 µM; in the assay with NCI/ADR-RES ovarian, 31.6 µM; with NCI-H460 lung it was 20 µM; in the assay with MCF7 breast it was 28.4 µM; with CAKI-1 renal it was 16.5 µM; with CCRF-CEM leukemia, 29.9 µM. In addition, the TGI in the assay with SK-OV-3 ovarian is 30.5 µM; with EKVX NSCLC it was 19.4 µM; with K-562 leukemia, > 36.3 µM; with T-47D breast, 22.9 µM; in the assay on UACC-62 melanoma, 30.1 µM.

In the case of `COc1ccc(Cc2nc3cc(C(F)(F)F)ccc3n2CCCN(C)C)cc1`, the TGI in the assay on HCC-2998 colon came out at 13.1 µM; in the assay with NCI/ADR-RES ovarian, 45.2 µM; with NCI-H460 lung it was 46.7 µM; with MCF7 breast, 32.3 µM; in the assay with CAKI-1 renal, 56 µM; in the assay with CCRF-CEM leukemia it was 44 µM. In addition, the TGI in the assay with SK-OV-3 ovarian was 41.9 µM; in the assay on EKVX NSCLC it was 65.4 µM; in the assay with K-562 leukemia it was 34.4 µM; in the assay on T-47D breast, 32.3 µM; in the assay on UACC-62 melanoma, 32.1 µM.

Consider `CCC1CC2CN3CCc4c([nH]c5c(-c6c(OC)ccc7c8c([nH]c67)[C@]6(C(=O)OC)CC7CC(CC)C6N(CC8)C7)c(O)ccc45)[C@](C(=O)OC)(C2)C13` (stereo partly drawn), for which the TGI was 27.2 µM in the assay with HCC-2998 colon; 53.9 µM with NCI/ADR-RES ovarian; 29.2 µM in the assay on NCI-H460 lung; 22.9 µM in the assay on MCF7 breast; 25.2 µM in the assay with CAKI-1 renal; > 100 µM in the assay on CCRF-CEM leukemia. Besides, the TGI in the assay with SK-OV-3 ovarian was determined as 68 µM; with EKVX NSCLC, 39.7 µM; in the assay on K-562 leukemia it was 27 µM; in the assay on T-47D breast it was 23 µM; in the assay on UACC-62 melanoma, 29.6 µM.

For the molecule `NNC(=O)CNC(=O)CSc1nnc(COc2ccc(Cl)cc2)n1-c1ccccc1`, the TGI in the assay with HCC-2998 colon, with NCI/ADR-RES ovarian, in the assay with NCI-H460 lung, with MCF7 breast, with CAKI-1 renal and in the assay with CCRF-CEM leukemia was > 100 µM throughout. Besides, the TGI with SK-OV-3 ovarian, in the assay with EKVX NSCLC, with K-562 leukemia, with T-47D breast and in the assay on UACC-62 melanoma was > 100 µM throughout.

As to `C1COC(NC(C2CC2)C2CC2)=N1`, the TGI in the assay with HCC-2998 colon, in the assay on NCI/ADR-RES ovarian, in the assay on NCI-H460 lung, with MCF7 breast, with CAKI-1 renal and in the assay on CCRF-CEM leukemia was > 100 µM in each case. The TGI in the assay on SK-OV-3 ovarian, in the assay with EKVX NSCLC, in the assay on K-562 leukemia, in the assay on T-47D breast and in the assay on UACC-62 melanoma was > 100 µM in each case.

For the molecule `O=C(Oc1ccccc1)c1cc2cc(CCl)ccc2oc1=O`, the TGI in the assay on HCC-2998 colon was 47.1 µM; with NCI/ADR-RES ovarian, > 100 µM; in the assay with NCI-H460 lung, 51.6 µM; in the assay with MCF7 breast, > 100 µM; in the assay on CAKI-1 renal, 29.8 µM; in the assay with CCRF-CEM leukemia, > 100 µM. For the same molecule, the TGI is 83.2 µM in the assay on SK-OV-3 ovarian; 38.5 µM with EKVX NSCLC; > 100 µM with K-562 leukemia; 38.7 µM in the assay on T-47D breast; 27.5 µM with UACC-62 melanoma.

Regarding `CN1C(c2ccccc2)=CC(=O)C(O)=C(c2ccccc2)S1(=O)=O`, the TGI with HCC-2998 colon, in the assay with NCI/ADR-RES ovarian, in the assay on NCI-H460 lung, with MCF7 breast, with CAKI-1 renal and in the assay with CCRF-CEM leukemia was > 100 µM in each case. The TGI in the assay with SK-OV-3 ovarian, with EKVX NSCLC, in the assay on K-562 leukemia, with T-47D breast and with UACC-62 melanoma was > 100 µM in each case.

As to `CC(C)CCC1(O)O[C@H]2C[C@H]3[C@@H]4CCC5CC(=O)C=C[C@]5(C)[C@H]4CC[C@]3(C)[C@H]2[C@@H]1C` (stereo partly drawn), the TGI in the assay on HCC-2998 colon is 5.86 µM; in the assay with NCI/ADR-RES ovarian it was 33.1 µM; in the assay with NCI-H460 lung, 22.2 µM; in the assay on MCF7 breast, 20.3 µM; in the assay on CAKI-1 renal, 28.1 µM; with CCRF-CEM leukemia it was 10.3 µM. Besides, the TGI was 32.9 µM in the assay on SK-OV-3 ovarian; 34.7 µM in the assay on EKVX NSCLC; 19.3 µM with K-562 leukemia; 25.6 µM in the assay on T-47D breast; 28 µM in the assay on UACC-62 melanoma.

`NC1CC(=O)c2csc(Br)c21` (stereo not drawn): the TGI with HCC-2998 colon was 34.6 µM; in the assay with NCI/ADR-RES ovarian, 44.4 µM; in the assay on NCI-H460 lung, > 67.4 µM; in the assay with MCF7 breast, 68 µM; with CAKI-1 renal, 27.5 µM; with CCRF-CEM leukemia, > 100 µM. The TGI was > 100 µM in the assay on SK-OV-3 ovarian; 33.1 µM in the assay on EKVX NSCLC; > 82.4 µM with K-562 leukemia; > 59.3 µM with T-47D breast; 33.2 µM with UACC-62 melanoma.

For `CC(=O)C1=C(N=[N+]=[N-])c2cccc3cccc(c23)C1=O`, the TGI with HCC-2998 colon was found to be 32 µM; with NCI/ADR-RES ovarian it was 70.9 µM; with NCI-H460 lung, 56.3 µM; in the assay with MCF7 breast, 64.6 µM; in the assay on CAKI-1 renal, 30.7 µM; with CCRF-CEM leukemia it was 25.6 µM. Moreover, the TGI worked out at 82.3 µM with SK-OV-3 ovarian; 46.3 µM with EKVX NSCLC; 89.8 µM in the assay on K-562 leukemia; 41.2 µM in the assay on T-47D breast; 34.2 µM in the assay on UACC-62 melanoma.

Take `CCOc1ccc2c(c1)/C(=C(\C(Cl)=C(Cl)Cl)[N+](=O)[O-])N2`: the TGI with HCC-2998 colon, in the assay on NCI/ADR-RES ovarian, with NCI-H460 lung, in the assay on MCF7 breast, in the assay on CAKI-1 renal and in the assay with CCRF-CEM leukemia was > 100 µM each time. Moreover, the TGI with SK-OV-3 ovarian, with EKVX NSCLC, with K-562 leukemia, in the assay with T-47D breast and in the assay on UACC-62 melanoma was > 100 µM each time.

Regarding `CC(=O)Oc1ccc2c(c1)c1c(=O)oc(N(C)C)nc1n2Cc1ccccc1`, the TGI in the assay on HCC-2998 colon was > 100 µM; with NCI/ADR-RES ovarian it was > 100 µM; with NCI-H460 lung it was > 100 µM; in the assay with MCF7 breast it was > 100 µM; in the assay with CAKI-1 renal it was > 73.3 µM; in the assay on CCRF-CEM leukemia, > 100 µM. Also, the TGI in the assay on SK-OV-3 ovarian was > 100 µM; with EKVX NSCLC it was > 100 µM; in the assay on K-562 leukemia, > 100 µM; with T-47D breast it was > 92.9 µM; in the assay with UACC-62 melanoma, > 100 µM.

For the molecule `Nc1nc(Cl)cc(NCC2(CO)CCC(Cc3ccccc3)C2)n1` (stereo not drawn), the TGI with HCC-2998 colon is > 100 µM; in the assay on NCI/ADR-RES ovarian, > 100 µM; in the assay with NCI-H460 lung it was > 100 µM; in the assay with MCF7 breast, 71 µM; in the assay with CAKI-1 renal, 95.6 µM; in the assay with CCRF-CEM leukemia, 75.4 µM. Moreover, the TGI with SK-OV-3 ovarian was > 90.6 µM; in the assay with EKVX NSCLC, > 100 µM; in the assay on K-562 leukemia, 64.8 µM; in the assay with T-47D breast it was > 70.3 µM; in the assay with UACC-62 melanoma, 40.1 µM.

`CC(=O)Nc1ccc(CNc2cc(=O)[nH]c(=O)[nH]2)cc1`: the TGI in the assay with HCC-2998 colon, with NCI/ADR-RES ovarian, with NCI-H460 lung, in the assay with MCF7 breast, with CAKI-1 renal and in the assay on CCRF-CEM leukemia was > 100 µM each time. The TGI with SK-OV-3 ovarian, with EKVX NSCLC, in the assay on K-562 leukemia, with T-47D breast and with UACC-62 melanoma was > 100 µM each time.

As for `COc1ccc2c3c1OC1C(=O)C=CC4(O)C(C2)NCC[C@@]314` (stereo partly drawn), the TGI in the assay on HCC-2998 colon was 6.1 µM; in the assay with NCI/ADR-RES ovarian it was 20.3 µM; in the assay on NCI-H460 lung, 13.2 µM; in the assay with MCF7 breast it was 9.17 µM; in the assay on CAKI-1 renal it was 8.49 µM; in the assay with CCRF-CEM leukemia, 2.76 µM. Further, the TGI was 11.2 µM in the assay on SK-OV-3 ovarian; 7.95 µM in the assay on EKVX NSCLC; > 80.8 µM with K-562 leukemia; 5.69 µM in the assay on T-47D breast; 12.7 µM in the assay with UACC-62 melanoma.

The values above are taken from PubChem BioAssay (NCI).
